Molecular target: Heat shock protein HSP 90-alpha (Homo sapiens) (UniProt P07900)
Assay: inhibition of human Hsp90, late-stage follow-up, biochemical, luminescence (AID 2748)
Conditions: Hsp90 biochemical assay, luminescence read-out

SMILES	IC50 [nM]
Cc1c(-c2nc(-c3ccc(C(F)(F)F)cc3)no2)n(C)oc1=O	1600
CCOC(=O)C1=C(c2ccc(OC)cc2)C(=O)c2ccccc2C1=O	308
COc1ccccc1NC(=O)c1coc(=O)c(Br)c1	457
Cc1c(-c2nc(-c3ccc(C(C)(C)C)cc3)no2)n(C)oc1=O	< 3
CCc1ccc(OCc2ccc(C(=O)OC)o2)cc1	1030
Cc1cc(NO)nc(-c2ccc(Br)cc2)n1	871
CCOC(=O)c1csc(NC(=O)c2cc3ccccc3o2)n1	878
COc1cc(C=NNc2ccc(Cl)c(C(=O)O)c2)ccc1OC(=O)c1ccc(F)cc1	1820
CC(=O)Nc1ccccc1OCC(=O)c1cc(C)n(Cc2cccs2)c1C	100

From PubChem BioAssay AID2748 (The Scripps Research Institute Molecular Screening Center, 2010)
